Source: patent US5399565A, “Pyrazolidinone CCK and gastrin antagonists and pharmaceutical formulations therof” (priority 1993, dated 1995)

Columns and labels:
[1] = target: T1, peripheral type CCK receptors in rat pancreas (Rattus norvegicus, UniProt P30551); experiment: Binding to peripheral type CCK receptors in rat pancreas (3H-L-364,718); details: for inhibition at 10 µM: read-out: Pancreas Percent Inhibition
T1 construct: Pancreas was obtained from male Sprague-Dawley rats; from tissue; host or cells: pancreas membranes of male Sprague-Dawley rats
T1 sequence (P30551 1-444): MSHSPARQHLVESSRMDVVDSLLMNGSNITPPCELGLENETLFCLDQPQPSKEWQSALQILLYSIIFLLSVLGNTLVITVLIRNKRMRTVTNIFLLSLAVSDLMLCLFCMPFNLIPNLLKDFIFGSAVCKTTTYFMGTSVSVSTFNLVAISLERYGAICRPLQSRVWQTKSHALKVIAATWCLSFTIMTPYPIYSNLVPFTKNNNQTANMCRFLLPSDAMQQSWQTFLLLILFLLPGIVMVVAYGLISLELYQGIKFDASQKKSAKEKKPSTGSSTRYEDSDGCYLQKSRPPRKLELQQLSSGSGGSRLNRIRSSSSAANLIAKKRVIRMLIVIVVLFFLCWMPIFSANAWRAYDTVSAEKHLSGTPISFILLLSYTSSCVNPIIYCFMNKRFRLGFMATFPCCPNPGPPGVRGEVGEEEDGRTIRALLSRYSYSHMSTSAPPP
Experimental: Binding to peripheral type CCK receptors in rat pancreas was done according to the method of Chang et al. (Mol. Pharmacol. 30: 212-217, 1986) using ^3 H-L364, 718. Pancreas was obtained from male Sprague-Dawley rats, 150-200 g, after decapitation, and dissected free from adipose and connective tissue. The tissue was homogenized in 30 volumes of 50 mM Tris buffer, pH 7.4 and centrifuged at 40,000 g for 10 min. The tissue pellet was washed by resuspension and centrifugation as described above. The final pellet was suspended in 500 volumes of assay buffer (50 mM Tris buffer, pH 7.4, 5 mM MgCl2, 0.14 mg/ml bacitracin, and 5 mM dithiothreitol) to give a protein concentration of 30-60 μg/200 μl . Reagent volumes for the assay were the same as those used for CCK binding to brain membranes. Tritium labeled L-364,718 (Dupont NEN, NET-971) was used as the ligand at a concentration of 0.4-0.6 nM. The samples were incubated 1 hour at room temperature and then filtered as described for the CCK-brain receptor. Scintillation cocktail was added to the filters which were counted for radioactivity using a Micromedic Taurus automatic liquid scintillation counter.
Compound samples were prepared and IC-50 values were determined as described for the CCK-brain experiments. Non-specific binding was that amount left bound to the filters after adding 100 nM L-364,718.

[2] = target: T2, brain CCK receptor (Mus musculus, UniProt P56481); experiment: CCK receptor binding, mouse brain membranes (125I-CCK-8 sulfate); details: for inhibition at 10 µM / inhibition at 1 µM: read-out: Brain Percent Inhibition; for IC50: mouse brain membranes, read-out: Brain IC50
T2 construct: from tissue; host or cells: forebrain membranes of male CF-1 mice
T2 sequence (P56481 1-453): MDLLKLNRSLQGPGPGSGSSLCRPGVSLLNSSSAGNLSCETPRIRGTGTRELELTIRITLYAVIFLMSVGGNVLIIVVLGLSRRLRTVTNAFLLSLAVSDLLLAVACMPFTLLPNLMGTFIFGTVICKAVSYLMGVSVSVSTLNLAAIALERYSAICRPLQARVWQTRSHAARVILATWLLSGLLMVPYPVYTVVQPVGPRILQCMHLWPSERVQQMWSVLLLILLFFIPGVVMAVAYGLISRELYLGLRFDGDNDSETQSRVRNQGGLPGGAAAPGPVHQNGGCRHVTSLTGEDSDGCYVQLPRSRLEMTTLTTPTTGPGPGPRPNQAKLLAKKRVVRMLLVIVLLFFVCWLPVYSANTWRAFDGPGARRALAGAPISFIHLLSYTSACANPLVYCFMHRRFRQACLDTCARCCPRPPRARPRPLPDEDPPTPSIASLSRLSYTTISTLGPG
Experimental: Brain CCK receptor binding was performed using mouse brain membranes according to the method of Chang and Lotti (Proc. Natl. Acad. Sci. 83: 4923-4926, 1986). Male CF-1 mice, 23-25 g were sacrificed by cervical dislocation, the forebrain removed and placed in ice cold 50 mM Tris buffer, pH 7.4. The tissue was homogenized in 100 volumes of the Tris buffer with a Brinkman Polytron or Tekmar Tissumizer and then centrifuged at 40,000 g for 10 min. Pellets were resuspended in Tris buffer, centrifuged as above and then resuspended in 100 volumes of assay buffer, pH 6.5 (20 mM N-2-hydroxyethyl-piperazine-N'-2-ethane sulfonic acid (HEPES), 1 mM ethylene glycol his (2-aminoethyl ether-N,N,N',N'-tetraacetic acid) (EGTA), 5 mM MgCl2, 130 mM NaCl, and 0.25 mg/ml bacitracin). The binding assay consisted of 50 μL of compound (or buffer for total binding), 50 μL of ^125 I-CCK-8 sulfate (20 pM) (Amersham IM- 159), 200 μL of assay buffer and 200 μL of homogenate (80-120 μg protein). The samples were incubated at room temperature (25°) for 2 hours, and they were then filtered through GF/B glass fiber filters (soaked in wash buffer for 2 hours before use) using a 48 well Brandel cell harvester designed for receptor binding. The filters were washed twice with 3 ml of 50 mM Tris buffer, pH 7.4, containing 0.01% BSA and then counted for radioactivity in plastic tubes with a Micromedic 10/600 automatic gamma counter.
Compounds were dissolved in dimethyl sulfoxide (DMSO) at a concentration of 10 mM and then further diluted with assay buffer. The concentration of DMSO in the incubation was 0.1% or less and had no effect on the assay at that level. IC-50 values of displacement curves were determined using 7 concentrations of compound and were calculated using the ALLFIT computer program of DeLean, Munson and Rodbard (Am. J. Physiol. 235: E97-E102, 1978). Non-specific binding was determined as the displacement of the radioligand by 100 nM CCK-8 sulfate.

| SMILES | inhibition at 10 µM [1] [%] | inhibition at 10 µM [2] [%] | IC50 [2] [nM] | inhibition at 1 µM [2] [%] | IC50 ([1]; rat pancreas) [nM] |
| --- | --- | --- | --- | --- | --- |
| O=C1NN(C(=S)Nc2c(F)c(F)c(F)c(F)c2F)[C@H](c2ccccc2)[C@H]1c1ccccc1 (relative stereo) [Example 65] | 37 | 50 | – | – | – |
| CN1C(=O)[C@H](c2ccccc2)[C@@H](c2ccccc2)N1C(=O)Nc1cccc(Cl)c1Cl (relative stereo) [Example 66] | 23 | 40 | – | – | – |
| O=C(O)CN1C(=O)[C@@H](c2ccccc2)[C@H](c2ccccc2)N1C(=O)Nc1ccc(Br)cc1 (relative stereo) [Example 12 (N--), 1-[(4-Bromophenyl)aminocarbonyl]-2-carboxymethyl-4,5-diphenyl-3-pyrazolidinone] | 55 | – | 1900 | – | – |
| O=C1NN(C(=O)Nc2ccc(I)cc2)[C@@H](c2ccccc2)[C@@H]1c1ccccc1 (relative stereo) [Example 21] | 77 | – | 57 | – | – |
| O=C1NN(C(=O)Nc2cccc(Cl)c2Cl)[C@H](c2ccccc2)[C@H]1c1ccccc1 (relative stereo) [Example 54] | 53 | – | 1150 | – | – |
| O=C1NN(C(=S)Nc2cccc(C(F)(F)F)c2)[C@H](c2ccccc2)[C@H]1c1ccccc1 (relative stereo) [Example 61] | 78 | 56 | – | – | – |
| O=C1NN(C(=O)Nc2ccc(Cl)cc2Cl)[C@H](c2ccccc2)[C@H]1c1ccccc1 (relative stereo) [Example 55] | 47 | – | 600 | – | – |
| O=C1NN(C(=O)Nc2cccc(OCc3ccccc3)c2)[C@H](c2ccccc2)[C@H]1c1ccccc1 (relative stereo) [Example 44] | 67 | – | 260 | – | – |
| CC(C)Oc1cccc(NC(=O)N2NC(=O)[C@H](c3ccccc3)[C@H]2c2ccccc2)c1 (relative stereo) [Example 43] | 24 | – | 230 | – | – |
| COc1ccc(NC(=O)N2NC(=O)[C@H](c3ccccc3)[C@H]2c2ccccc2)cc1OC (relative stereo) [Example 51] | 25 | – | – | 18 | – |
| COc1ccc(NC(=O)N2NC(=O)[C@@H](c3ccccc3)[C@@H]2c2ccccc2)cc1 (relative stereo) [Example 33] | 20 | – | 340 | – | – |
| Cc1ccc(NC(=O)N2NC(=O)[C@@H](c3ccccc3)[C@@H]2c2ccccc2)cc1 (relative stereo) [Example 25] | 14 | – | 210 | – | – |
| CCCCc1ccc(NC(=O)N2NC(=O)[C@@H](c3ccccc3)[C@@H]2c2ccccc2)cc1 (relative stereo) [Example 28] | 55 | – | 440 | – | – |
| O=C1NN(C(=S)Nc2ccccc2)[C@H](c2ccccc2)[C@H]1c1ccccc1 (relative stereo) [Example 60] | 37 | 34 | – | – | – |
| O=C1NN(C(=O)Nc2ccc3c(c2)OCO3)[C@H](c2ccccc2)[C@H]1c1ccccc1 (relative stereo) [Example 52] | 21 | – | – | 60 | – |
| CC(=O)c1ccc(NC(=O)N2NC(=O)[C@@H](c3ccccc3)[C@@H]2c2ccccc2)cc1 (relative stereo) [Example 23] | 23 | – | 490 | – | – |
| O=C1NN(C(=O)Nc2ccc(-c3ccccc3)cc2)[C@@H](c2ccccc2)[C@@H]1c1ccccc1 (relative stereo) [Example 32] | 69 | – | – | 42 | – |
| CCOc1ccc(NC(=O)N2NC(=O)[C@@H](c3ccccc3)[C@@H]2c2ccccc2)cc1 (relative stereo) [Example 34] | 12 | – | 1500 | – | – |
| O=C1NN(C(=S)Nc2ccc(Cl)c(C(F)(F)F)c2)[C@H](c2ccccc2)[C@H]1c1ccccc1 (relative stereo) [Example 63] | – | – | 510 | – | 75 |

The next lines start with the values.

| inhibition at 10 µM [1] [%] | inhibition at 10 µM [2] [%] | IC50 [2] [nM] | inhibition at 1 µM [2] [%] | IC50 ([1]; rat pancreas) [nM] | SMILES |
| --- | --- | --- | --- | --- | --- |
| 15 | 23 | – | – | – | O=C1NN(C(=O)c2ccc(C(F)(F)F)cc2)[C@H](c2ccccc2)[C@H]1c1ccccc1 (relative stereo) [Example 74] |
| 78 | – | 870 | – | – | CC(NC(=O)N1NC(=O)[C@@H](c2ccccc2)[C@@H]1c1ccccc1)c1ccc(Br)cc1 (relative stereo) [Example 103] |
| 36 | – | – | 13 | – | CCCCC1C(c2ccccc2)C(=O)NN1C(=O)Nc1cccc(C(F)(F)F)c1 (stereo not shown) [Example 70] |
| 9 | 43 | – | – | – | O=C1NN(C(=O)Oc2ccccc2)[C@@H](c2ccccc2)[C@@H]1c1ccccc1 (relative stereo) [Example 79] |
| 64 | – | 1200 | – | – | O=C1NN(C(=O)Nc2ccc(Br)cc2)C(c2ccc([N+](=O)[O-])cc2)C1c1ccccc1 (stereo not shown) [Example 119] |
| 43 | – | 490 | – | – | O=C1NN(C(=O)NCCc2ccccc2)[C@@H](c2ccccc2)[C@@H]1c1ccccc1 (relative stereo) [Example 105] |
| 9 | – | 5200 | – | – | O=C1NN(C(=O)Oc2ccc([N+](=O)[O-])cc2)[C@@H](c2ccccc2)[C@@H]1c1ccccc1 (relative stereo) [Example 80] |
| 37 | 40 | – | – | – | O=C1NN(C(=O)Nc2cccnc2)[C@@H](c2ccccc2)[C@@H]1c1ccccc1 (relative stereo) [Example 88] |
| 23 | 47 | – | – | – | O=C1NN(c2nc3ccccc3o2)[C@@H](c2ccccc2)[C@@H]1c1ccccc1 (relative stereo) [Example 87] |
| 87 | – | 1300 | – | – | O=C1NN(C(=O)NCCCc2ccccc2)[C@@H](c2ccccc2)[C@@H]1c1ccccc1 (relative stereo) [Example 108] |
| 86 | – | 3300 | – | – | O=C1NN(C(=O)NCc2cccc(Cl)c2)[C@@H](c2ccccc2)[C@@H]1c1ccccc1 (relative stereo) [Example 99] |
| 20 | 16 | – | – | – | CC(C)C1C(c2ccccc2)C(=O)NN1C(=O)Nc1ccc(Br)cc1 (stereo not shown) [Example 73] |
| 33 | 74 | – | – | – | O=C1NN(C(=O)NCc2ccccc2Cl)[C@@H](c2ccccc2)[C@@H]1c1ccccc1 (relative stereo) [Example 98] |
